From patent US3970648A, “2-[2-(5-Nitro-2-furyl)vinyl]-4-(anilino)quinazolines” (Diamond Shamrock Corporation, priority 1974, dated 1976)

How the values were obtained:
[1] = Growth promotion in chicks at low feed levels, Example VIII (Table II); format: in vivo, broiler cross chicks; details: for Average 4 Week Performance: Feed Efficiency / Average 4 Week Performance: Gain / Improved Response Over Basal Ration: Feed Efficiency / Improved Response Over Basal Ration: Gain: 10 g/T in basal ration, 4 weeks
Source text: Day old broiler cross chicks were weight equalized into groups of eight chicks each and were placed in battery brooders. The 32 chick treatment groups (four replicates) were fed one of the five rations described below for a 4 week period. Weekly measurements of body weights and feed consumption were made by replicate, and these measurements used to calculate weight gain and feed efficiency.
The basal ration was the basal ration used in Example VII above. The remaining five rations were obtained by mixing the indicated quantities of bacitracin (4 g/T), chlortetracycline (10 g/T), product of Example I (10 g/T), and product of Example III of U.S. Pat. No. 3,542,784 -- Burch (10 g/T) as growth promotants with the basal ration.

[2] = Growth promotion in chicks, Example XI (Table V); format: in vivo, broiler cross chicks; details: for feed efficiency (in words) / growth rate (in words): 25 g/T; for Average 4 Week Performance: Feed Efficiency / Average 4 Week Performance: Gain / Improved Response Over Basal Ration: Feed Efficiency / Improved Response Over Basal Ration: Gain: 4 weeks
Source text: (§1) This example compares growth promotion activity of the product of Example I with other growth promotants at a concentration of 25 g/T in the Basal Ration described in Example VII. The other growth promotants include the product described in Example I of U.S. Pat. No. 3,542,784 -- Burch and quinoxaline-1,4-dioxide. Day old broiler cross chicks were weight equalized into groups of eight chicks each, and four replicates of eight chicks each were fed the experimental rations over a 4 week period.
The growth promotion tests described in Example X were repeated with the exception that five replicates of eight chicks each were fed the formulations described in Table V for 4 weeks.

[3] = Growth promotion and feed efficiency in chicks, Example VII (Table I); format: in vivo, broiler cross chicks; details: for Average 4 Week Performance: Feed Efficiency / Average 4 Week Performance: Gain / Improved Response Over Basal Ration + Bacitracin: Feed Efficiency / Improved Response Over Basal Ration + Bacitracin: Gain: 200 g/T in basal ration + bacitracin (4 g/T), 4 weeks; for significance of improved feed efficiencies (level of probability) / significance of improved weight gains (level of probability): 200 g/T, analysis of variance
Source text: One hundred 20 day-old broiler cross chicks were weight equalized into 15 groups of eight chicks each and placed in battery brooders. The 40 chick treatment groups (five replicates) were fed the one of the three rations described below for a 4 week period. Weekly measurements of body weights and feed consumption were made by replicate, and these measurements used to calculate weight gain and feed efficiency.
The commercial type broiler starter basal ration which was used in this study was designated as the Basal Ration, and had the following composition:
The preceding basal ration was mixed with bacitracin at a level of 4 g/T as the only growth stimulant to simulate commercial practice. This mixture was designated as the Basal Ration + Bacitracin (4 g/T) and constituted the negative control in this study.
A second ration was prepared by fortifying the Basal Ration + bacitracin described above with the Product from Example I above at a level of 200 g/T, and was designated as Basal Ration + Bacitracin + Product of Example I (200 g/T). A third ration was prepared by fortifying the Basal Ration + bacitracin described above with chlortetracycline (CTC) at a level of 200 g/T, and was designated as Basal Ration + Bacitracin + Chlortetracycline (200 g/T). Chlortetracycline served as the positive control in this test because it had shown strong growth promotion in numerous previous tests at this therapeutic level.
The commercial value of the product of Example I is indicated by the fact that these significant responses were obtained in addition to the growth stimulation provided by the presence of bacitracin in the ration. It is important to note that the negative controls in this example and in Examples VIII and X which follow were characterized by rapid rates of growth. This high plane of growth and feed efficiency performance on the part of the negative controls makes the responses to the test compounds all the more meaningful.
The term "growth promotion" is used herein to describe the beneficial effect of a compound in eliciting a more rapid rate of weight gain when compared to the weight gain of control animals not fed the compound. "Feed efficiency" is a term regularly used in animal husbandry and is a measure of the pounds of feed required to produce a pound of gain in the weight of the animal. A lower mathmatical value for feed efficiency reflects improved performance. […] In this case, as in the case of the weight gain (fifth column), an improved performance is indicated by a higher positive number.

[4] = Growth promotion in chicks at 25 g/T, Example X (Table IV); format: in vivo, broiler cross chicks; details: 25 g/T
Source text: as §1

[5] = Growth promotion in chicks, Example XII repeat (Table VII); format: in vivo, broiler cross chicks; details: for Average 4 Week Performance: Feed Efficiency / Average 4 Week Performance: Gain / Improved Response Over Basal Ration: Feed Efficiency / Improved Response Over Basal Ration: Gain: 25 g/T in basal ration, 4 weeks
Source text: as §1
The growth promotion tests described in Example X were repeated with the additional testing the products of Examples II and III.

[6] = Growth rate and feed efficiency in swine, Example XIII (Table VIII); format: in vivo, weanling pigs; details: 25 g/T
Source text: Thirty-six weanling pigs weighing approximately 30 pounds each in good physical condition and originating from a common source were used in these tests. The pigs were allocated into sex and weight equalized pens of six pigs each. A 1 week period was allowed for acclimatization before testing. Three replicates of six pigs were fed the basal ration described below, and three replicates were fed the same basal ration supplemented with 25 g/T of the product of Example I.
The basal ration was a 17% commercial corn-soya pelletized formulation which was free of antibiotic and drug components. Composition of the basal ration formulation was: […]
The rations were offered ad libitum from six bushel self-feeders with a continuous supply of fresh water. The same ration formulations were used throughout the 6 week feeding period. Individual pig weighing were made after 0, 2, 4 and 6 (termination) week periods. Feed consumption records were kept on a pen basis, with feed efficiency conversion being compiled at the end of the second, fourth and sixth (termination) week of feeding. Complete morbidity and mortality records were kept.

[7] = Growth promotion in chicks, Example XII first set (Table VI); format: in vivo, broiler cross chicks; details: for Average 4 Week Performance: Feed Efficiency / Average 4 Week Performance: Gain / Improved Response Over Basal Ration: Feed Efficiency / Improved Response Over Basal Ration: Gain: 25 g/T in basal ration, 4 weeks; for growth rate / feed efficiency, production parameters (in words): 25 g/T, first set of tests
Source text: as §1, with “period. […]” for “period.”

[8] = 25 g/T combined with bacitracin 25 g/T
[9] = 6 weeks, mean of three replicates

In the case of `CN(C)[C@@H]1C(O)=C(C(N)=O)C(=O)[C@@]2(O)C(O)=C3C(=O)c4c(O)ccc(Cl)c4[C@@](C)(O)[C@H]3C[C@@H]12` [Chlortetracycline, reference compound], the “Average 4 Week Performance: Feed Efficiency” value [1] is reported as 1.745, the “Average 4 Week Performance: Gain” value [1] is reported as 714.2 g and the “Improved Response Over Basal Ration: Feed Efficiency” value [1] is reported as “+0.9%”. For the same compound, the “Improved Response Over Basal Ration: Gain” value [1] was -0.9%, the “feed efficiency (in words)” value [2] was “moderate improvements in feed efficiencies” and the “growth rate (in words)” value [2] was “slight improvements in growth rates”. The “Average 4 Week Performance: Feed Efficiency” value ([2]; 25 g/T in basal ration) was 1.717, the “Average 4 Week Performance: Gain” value ([2]; 25 g/T in basal ration) was 752.5 g and the “Improved Response Over Basal Ration: Feed Efficiency” value ([2]; 25 g/T in basal ration) was “+4.7%”. For the same compound, the “Improved Response Over Basal Ration: Gain” value ([2]; 25 g/T in basal ration) was “+2.7%”, the “Average 4 Week Performance: Feed Efficiency” value [3] was 1.607 and the “Average 4 Week Performance: Gain” value [3] was 732.4 gms. For the same compound, the “Improved Response Over Basal Ration + Bacitracin: Feed Efficiency” value [3] was “+6.6%”, the “Improved Response Over Basal Ration + Bacitracin: Gain” value [3] was “+5.5%” and the “significance of improved feed efficiencies (level of probability)” value [3] was 99.9%. For the same compound, the “significance of improved weight gains (level of probability)” value [3] was 99.5%.
In the case of `O=[N+]([O-])c1ccc(C=Cc2nc(Nc3ccc(O)cc3)c3ccccc3n2)o1` [Example I, 2-[2-(5-nitro-2-furyl)vinyl]-4-(p-hydroxyanilino)quinazoline], the “effect on feed efficiency (in words)” value [4] is reported as “strongest response in growth rate and feed efficiency”, the “growth response (in words)” value [4] is reported as “strongest response in growth rate and feed efficiency” and the “Average 4 Week Performance: Feed Efficiency” value [5] is reported as 1.706. The “Average 4 Week Performance: Gain” value [5] was 695.3 g, the “Improved Response Over Basal Ration: Feed Efficiency” value [5] was “+4.4%” and the “Improved Response Over Basal Ration: Gain” value [5] was “+1.9%”. For the same compound, the “growth rate / feed efficiency, production parameters (in words)” value (from here on “growth rate / feed efficiency”) ([5]; 25 g/T, second set of tests) was “moderate improvements in production parameters”, the “Average 4 Week Performance: Feed Efficiency” value [1] was 1.671 and the “Average 4 Week Performance: Gain” value [1] was 750.7 g. For the same compound, the “Improved Response Over Basal Ration: Feed Efficiency” value [1] was “+5.1%”, the “Improved Response Over Basal Ration: Gain” value [1] was “+4.2%” and the “growth promotion (in words)” value ([1]; 10 g/T, compared with other growth promotants of the test) was “greater growth promotion than any of the other growth promotants used in this test”. For the same compound, the “feed efficiency (in words)” value [2] was “substantial improvement in feed efficiency”, the “growth rate (in words)” value [2] was “moderate improvement in growth rate” and the “combination effect (in words)” value [2, 8] was “synergistic effects”. For the same compound, the “Average 4 Week Performance: Feed Efficiency” value [2, 8] was 1.666, the “Average 4 Week Performance: Gain” value [2, 8] was 766.4 g and the “Improved Response Over Basal Ration: Feed Efficiency” value [2, 8] was “+7.5%”. The “Improved Response Over Basal Ration: Gain” value [2, 8] was “+4.6%”, the “Average 4 Week Performance: Feed Efficiency” value ([2]; 25 g/T in basal ration) was 1.677 and the “Average 4 Week Performance: Gain” value ([2]; 25 g/T in basal ration) was 756.1 g. The “Improved Response Over Basal Ration: Feed Efficiency” value ([2]; 25 g/T in basal ration) was “+6.9%”, the “Improved Response Over Basal Ration: Gain” value ([2]; 25 g/T in basal ration) was “+3.2%” and the “Improved Response Over Basal Ration: Feed Efficiency” value ([6]; 6 weeks) was “+2.4%”. The “Improved Response Over Basal Ration: Gain” value ([6]; 6 weeks) was “+9.9%”, the “feed efficiency (in words)” value ([6]; 6 weeks) was “enhanced feed efficiency” and the “growth improvement (in words)” value ([6]; 6 weeks) was “very substantial growth improvement”. For the same compound, the “Avg. Daily Gain” value [6, 9] was 1.537, the “Feed/lb. Gain” value [6, 9] was 2.507 and the “Avg. Daily Gain” value ([6]; 6 weeks, replicate a) was 1.567. For the same compound, the “Feed/lb. Gain” value ([6]; 6 weeks, replicate a) was 2.722, the “Avg. Daily Gain” value ([6]; 6 weeks, replicate b) was 1.567 and the “Feed/lb. Gain” value ([6]; 6 weeks, replicate b) was 2.392. For the same compound, the “Avg. Daily Gain” value ([6]; 6 weeks, replicate c) was 1.476, the “Feed/lb. Gain” value ([6]; 6 weeks, replicate c) was 2.406 and the “Avg. 6 Wk. Wt. Per Pig” value ([6]; replicate a) was 97.8. For the same compound, the “Avg. 6 Wk. Wt. Per Pig” value ([6]; replicate b) was 97.6, the “Avg. 6 Wk. Wt. Per Pig” value ([6]; replicate c) was 93.7 and the “Average 4 Week Performance: Feed Efficiency” value [7] was 1.623. The “Average 4 Week Performance: Gain” value [7] was 762.1 g, the “Improved Response Over Basal Ration: Feed Efficiency” value [7] was “+0.7%” and the “Improved Response Over Basal Ration: Gain” value [7] was “+2.4%”. For the same compound, the “growth rate / feed efficiency” value [7] was “moderate improvements in production parameters”, the “Average 4 Week Performance: Feed Efficiency” value [3] was 1.597 and the “Average 4 Week Performance: Gain” value [3] was 739.8 gms. For the same compound, the “Improved Response Over Basal Ration + Bacitracin: Feed Efficiency” value [3] was “+7.2%”, the “Improved Response Over Basal Ration + Bacitracin: Gain” value [3] was “+6.5%” and the “significance of improved feed efficiencies (level of probability)” value [3] was 99.9%. The “significance of improved weight gains (level of probability)” value [3] was 99.5%.
For `O=[N+]([O-])c1ccc(C=Cc2nc(Nc3cccc(O)c3)c3ccccc3n2)o1` [Example II, 2-[2-(5-nitro-2-furyl)vinyl]-4-(m-hydroxyanilino)quinazoline], the “Average 4 Week Performance: Feed Efficiency” value [5] was 1.672, the “Average 4 Week Performance: Gain” value [5] was 696.4 g and the “Improved Response Over Basal Ration: Feed Efficiency” value [5] was “+6.3%”. For the same compound, the “Improved Response Over Basal Ration: Gain” value [5] was “+2.0%”, the “Average 4 Week Performance: Feed Efficiency” value [7] was 1.580 and the “Average 4 Week Performance: Gain” value [7] was 773.0 g. The “Improved Response Over Basal Ration: Feed Efficiency” value [7] was “+3.3%”, the “Improved Response Over Basal Ration: Gain” value [7] was “+3.9%” and the “growth rate / feed efficiency” value [7] was “moderate improvements”.
